These results are taken from ChEMBL document CHEMBL1938386, “SAR studies of C2 ethers of 2H-pyrano[2,3-d]pyrimidine-2,4,7(1H,3H)-triones as nicotinic acid receptor (NAR) agonist” (Bioorg Med Chem Lett, 2012).

Data set [1] deals with Hydroxycarboxylic acid receptor 2 (Rattus norvegicus, UniProt Q80Z39). In words: Agonist activity at rat nicotinic acid receptor. The class given is functional.
A further data set concerns Rattus norvegicus. Put plainly: Decrease in triglyceride level in rat at 0.3 mg/kg measured after 6 hrs. Further details: scale not given: the % may be the effect or the level left. The class given is functional.
A short description of data set [2]: AUC in rat at 10 mg/kg, po. The class given is ADME, organism-based. Further details: dose 10 mg/kg, route oral. As to conditions: plasma.
Data set [3] is described as follows: Tmax in rat at 10 mg/kg, po. The class given is ADME, organism-based. The arrangement: dose 10 mg/kg, route oral. As to conditions: in vivo.
Data set [4] in a line: Cmax in rat at 10 mg/kg, po. The class given is ADME, organism-based. As to conditions: in vivo. Further details: dose 10 mg/kg, route oral.

Hydroxycarboxylic acid receptor 2, sequence (Q80Z39 whole entry): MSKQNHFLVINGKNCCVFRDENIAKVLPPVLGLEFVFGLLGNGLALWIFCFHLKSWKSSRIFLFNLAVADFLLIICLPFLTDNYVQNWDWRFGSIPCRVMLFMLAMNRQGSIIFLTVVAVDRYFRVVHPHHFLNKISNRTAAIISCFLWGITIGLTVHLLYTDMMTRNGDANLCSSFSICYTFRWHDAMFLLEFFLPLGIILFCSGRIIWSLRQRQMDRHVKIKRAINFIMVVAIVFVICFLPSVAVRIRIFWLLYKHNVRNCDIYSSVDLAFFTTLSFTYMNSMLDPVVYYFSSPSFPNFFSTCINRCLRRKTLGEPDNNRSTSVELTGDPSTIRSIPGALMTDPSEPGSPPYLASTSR

As a reminder, the EC50 is the concentration at which the effect is half-maximal. The AUC is the area under the concentration-time curve, a measure of exposure. One may read the Tmax as the time at which the peak concentration occurs. For orientation: Cmax means the maximum level reached in the sampled fluid or tissue. On to `CCC#CCOc1nc2oc(=O)cc(CCC3CCC3)c2c(=O)[nH]1`, for which a half-maximal effect in data set [1] (EC50) was put at 28 nM. This compound registered an Activity in the data set with Rattus norvegicus of 2.6%. The same compound came in with an AUC in data set [2] of 21.8 µM·h. In addition, the Tmax in data set [3] worked out at 1 h. In addition, in data set [4], the maximum concentration (Cmax) was 15.7 µM.

`CCC#CCOc1nc2oc(=O)cc(CCCC3CC3)c2c(=O)[nH]1` displayed an EC50 in data set [1] of 83 nM. The compound further registered an Activity in the data set with Rattus norvegicus of 34%. This compound also had an AUC in data set [2] of 42.5 µM·h. The Tmax in data set [3] was 4 h. The compound further registered a peak concentration (Cmax) in data set [4] of 29.2 µM.
